Data published in BindingDB's records for doi:10.1021/jm300416h (Taiho Pharmaceutical, 2012).

Assay: Inhibition of human dUTPase-mediated cell proliferation in HeLa S3 cells assessed as compound concentration required to reduce 50% of 1 uM of FdUrd T/C after 24 hrs by crystal violet staining

Row | SMILES | EC50 [nM]
1 | C[C@@H](NS(=O)(=O)CC/C=C/Cn1ccc(=O)[nH]c1=O)c1cccc(OC2CCCC2)c1 | 150
2 | C[C@@H](NS(=O)(=O)CC/C=C/Cn1ccc(=O)[nH]c1=O)c1cccc(OCC2CC2)c1 | 66
3 | C[C@@H](NS(=O)(=O)CC/C=C/Cn1ccc(=O)[nH]c1=O)c1cccc(OCC(F)F)c1 | 96
4 | CC(C)(NS(=O)(=O)c1cccc(OC2CCCC2)c1)c1ccc(Cn2ccc(=O)[nH]c2=O)cc1 | 120
5 | C[C@@H](NS(=O)(=O)c1ccc(Cn2ccc(=O)[nH]c2=O)cc1)c1cccc(OCC2CC2)c1 | 930
6 | C[C@@H](NS(=O)(=O)c1ccc(Cn2ccc(=O)[nH]c2=O)cc1)c1cccc(OC2CCCC2)c1 | 610
7 | C[C@@H](NS(=O)(=O)c1ccc(Cn2ccc(=O)[nH]c2=O)cc1)c1cccc(OCC(F)F)c1 | 610

Further lines, results first:

Row | EC50 [nM] | SMILES
8 | 5100 | CC(C)(CCCOCn1ccc(=O)[nH]c1=O)NS(=O)(=O)c1ccccc1
9 | 2600 | CC(C)(NS(=O)(=O)c1ccccc1)c1ccc(Cn2ccc(=O)[nH]c2=O)cc1
10 | 3130 | COc1cccc(S(=O)(=O)NC(C)(C)c2ccc(Cn3ccc(=O)[nH]c3=O)cc2)c1
11 | 140 | CC(C)(NS(=O)(=O)c1cccc(OCC2CC2)c1)c1ccc(Cn2ccc(=O)[nH]c2=O)cc1
12 | 2600 | CC(C)(CC/C=C/Cn1ccc(=O)[nH]c1=O)NS(=O)(=O)c1ccccc1
13 | 100 | CC(C)(NS(=O)(=O)c1cccc(OCC(F)F)c1)c1ccc(Cn2ccc(=O)[nH]c2=O)cc1
14 | 450 | COc1cccc(S(=O)(=O)NC(C)(C)CC/C=C/Cn2ccc(=O)[nH]c2=O)c1
15 | 200 | CC(C)(CC/C=C/Cn1ccc(=O)[nH]c1=O)NS(=O)(=O)c1cccc(OC2CCCC2)c1
16 | 49 | CC(C)(CC/C=C/Cn1ccc(=O)[nH]c1=O)NS(=O)(=O)c1cccc(OCC(F)F)c1

Assay: Inhibition of human dUTPase-mediated cell proliferation in HeLa S3 cells after 72 hrs by crystal violet staining

Row | IC50 [µM] | SMILES
17 | 38.2 | C[C@@H](NS(=O)(=O)CC/C=C/Cn1ccc(=O)[nH]c1=O)c1cccc(OCC2CC2)c1
